# According to US20170057955A1, “Pyridopyrimidinone Compounds for Modulating the Catalytic Activity of Histone Lysine Demethylases (KDMs)” (Dong-A Socio Holdings Co., Ltd., priority 2015, published 2017):
# Molecular target: T1, Recombinant human JARID1B/KDM5B (Homo sapiens, UniProt Q9UGL1)
# T1 construct: purchased Active Motif 31432; host or cells: Sf9 insect cells
# Experiment: LANCE Ultra TR-FRET JARID1B (KDM5B) demethylase inhibition assay
# Type: biochemical
# Details: 0.1 uM of test-compounds, FLAG-JARID1B, 500 nM biotinylated H3K4me3 peptide substrate, 30 min at room temperature
# In short: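 FLAG-tagged JARID1B from Sf9 cells, pre-incubated 5 min with 0.1 uM compound (1% DMSO), then 500 nM biotinylated H3K4me3 peptide, 500 uM 2-OG, 25 uM Fe(II), 2 mM ascorbate in pH 7.5 Hepes buffer. After 30 min at room temperature, H3K4me2/1 product detected by TR-FRET (665/590 nm ratio).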
# T1 sequence (Q9UGL1 whole entry): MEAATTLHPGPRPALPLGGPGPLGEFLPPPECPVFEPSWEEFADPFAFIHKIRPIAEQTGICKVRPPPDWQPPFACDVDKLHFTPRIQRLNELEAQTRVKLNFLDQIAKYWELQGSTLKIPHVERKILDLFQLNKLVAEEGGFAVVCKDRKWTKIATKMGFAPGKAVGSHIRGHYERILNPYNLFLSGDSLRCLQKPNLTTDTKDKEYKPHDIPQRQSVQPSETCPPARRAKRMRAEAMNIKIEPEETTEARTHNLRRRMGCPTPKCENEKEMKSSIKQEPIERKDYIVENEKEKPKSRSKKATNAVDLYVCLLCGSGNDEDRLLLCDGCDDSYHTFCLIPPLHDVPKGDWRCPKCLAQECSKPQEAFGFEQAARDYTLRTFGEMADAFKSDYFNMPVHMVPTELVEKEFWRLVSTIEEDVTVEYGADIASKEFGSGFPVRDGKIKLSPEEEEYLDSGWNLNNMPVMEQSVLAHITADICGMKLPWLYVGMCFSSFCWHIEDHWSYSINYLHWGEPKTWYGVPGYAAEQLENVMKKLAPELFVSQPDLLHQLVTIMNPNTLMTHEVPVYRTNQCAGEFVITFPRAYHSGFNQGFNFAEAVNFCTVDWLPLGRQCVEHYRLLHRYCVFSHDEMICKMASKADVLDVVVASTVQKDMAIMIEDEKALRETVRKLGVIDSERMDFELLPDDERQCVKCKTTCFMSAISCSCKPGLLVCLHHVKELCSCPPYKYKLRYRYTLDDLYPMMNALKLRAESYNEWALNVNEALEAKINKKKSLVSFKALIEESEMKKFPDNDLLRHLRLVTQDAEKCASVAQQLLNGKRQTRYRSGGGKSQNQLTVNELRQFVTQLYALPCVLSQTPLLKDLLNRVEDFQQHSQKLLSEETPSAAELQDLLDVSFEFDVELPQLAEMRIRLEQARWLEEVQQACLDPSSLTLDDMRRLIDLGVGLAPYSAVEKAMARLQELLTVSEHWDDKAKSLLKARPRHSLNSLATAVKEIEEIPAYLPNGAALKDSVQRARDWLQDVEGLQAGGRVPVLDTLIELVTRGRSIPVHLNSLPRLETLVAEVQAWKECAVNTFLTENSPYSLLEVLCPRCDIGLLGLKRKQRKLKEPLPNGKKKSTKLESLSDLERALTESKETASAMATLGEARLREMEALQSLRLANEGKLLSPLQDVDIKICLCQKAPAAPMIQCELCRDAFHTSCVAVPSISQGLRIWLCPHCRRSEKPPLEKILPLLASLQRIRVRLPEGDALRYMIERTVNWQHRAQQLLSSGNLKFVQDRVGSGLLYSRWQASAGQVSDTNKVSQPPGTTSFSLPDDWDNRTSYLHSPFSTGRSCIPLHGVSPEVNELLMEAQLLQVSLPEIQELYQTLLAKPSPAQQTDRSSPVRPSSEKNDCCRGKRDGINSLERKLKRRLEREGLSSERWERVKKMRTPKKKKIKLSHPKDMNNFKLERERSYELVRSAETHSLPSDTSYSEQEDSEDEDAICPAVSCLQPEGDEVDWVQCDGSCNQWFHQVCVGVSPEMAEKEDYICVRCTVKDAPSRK
row,inhibition at 0.1 µM [%],Structure (SMILES)
1,< 20,"CN(C)CCNc1nc(-c2nccc3c(=O)[nH]c(COCc4ccccc4)nc23)cs1 [Compound 148, 2-((benzyloxy)methyl)-8-(2-((2-(dimethylamino)ethyl)amino)thiazol-4-yl)pyrido[3,4-d]pyrimidin-4(3H)-one]"
2,20 to 50,"NCCNc1nc(-c2nccc3c(=O)[nH]c(COCc4ccccc4)nc23)cs1 [Compound 149, 8-(2-((2-aminoethyl)amino)thiazol-4-yl)-2-((benzyloxy)methyl)pyrido [3,4-d]pyrimidin-4(3H)-one]"
3,< 20,"CN(C)CCCNc1nc(-c2nccc3c(=O)[nH]c(COCc4ccccc4)nc23)cs1 [Compound 150, 2-((benzyloxy)methyl)-8-(2-((3-(dimethylamino)propyl)amino)thiazol-4-yl)pyrido[3,4-d]pyrimidin-4(3H)-one]"
4,< 20,"CN1CCN(CCNc2nc(-c3nccc4c(=O)[nH]c(COCc5ccccc5)nc34)cs2)CC1 [Compound 151, 2-((benzyloxy)methyl)-8-(2-((2-(4-methylpiperazin-1-yl)ethyl)amino)thiazol-4-yl)pyrido[3,4-d]pyrimidin-4(3H)-one]"
5,< 20,"CN1CCCC1CCNc1nc(-c2nccc3c(=O)[nH]c(COCc4ccccc4)nc23)cs1 (stereo not shown) [Compound 152, 2-((benzyloxy)methyl)-8-(2-((2-(1-methylpyrrolidin-2-yl)ethyl)amino)thiazol-4-yl)pyrido[3,4-d]pyrimidin-4(3H)-one]"
6,< 20,"O=c1[nH]c(COCc2ccccc2)nc2c(-c3csc(NCC4CCN(CCO)CC4)n3)nccc12 [Compound 153, 2-((benzyloxy)methyl)-8-(2-(((1-(2-hydroxyethyl)piperidin-4-yl)methyl)amino)thiazol-4-yl)pyrido[3,4-d]pyrimidin-4(3H)-one]"
7,< 20,"COCCN1CCC(CNc2nc(-c3nccc4c(=O)[nH]c(COCc5ccccc5)nc34)cs2)CC1 [Compound 154, 2-((benzyloxy)methyl)-8-(2-(((1-(2-methoxyethyl)piperidin-4-yl)methyl)amino)thiazol-4-yl)pyrido[3,4-d]pyrimidin-4(3H)-one]"
8,20 to 50,"CN1CCC(Nc2nc(-c3nccc4c(=O)[nH]c(COCc5ccccc5)nc34)cs2)CC1 [Compound 155, 2-((benzyloxy)methyl)-8-(2-((1-methylpiperidin-4-yl)amino)thiazol-4-yl)pyrido[3,4-d]pyrimidin-4(3H)-one]"
9,20 to 50,"O=c1[nH]c(COc2cccc(-c3ccccc3)c2)nc2c(-c3csc(NCCO)n3)nccc12 [Compound 156, 2-(([1,1′-biphenyl]-3-yloxy)methyl)-8-(2-((2-hydroxyethyl)amino)thiazol-4-yl)pyrido[3,4-d]pyrimidin-4(3H)-one]"
10,< 20,"O=c1[nH]c(COc2ccc(Oc3ccccc3)cc2)nc2c(-c3csc(NCCO)n3)nccc12 [Compound 157, 8-(2-((2-hydroxyethyl)amino)thiazol-4-yl)-2-((4-phenoxyphenoxy)methyl) pyrido[3,4-d]pyrimidin-4(3H)-one]"
11,< 20,"CC(C)(c1ccccc1)c1ccc(OCc2nc3c(-c4csc(NCCO)n4)nccc3c(=O)[nH]2)cc1 [Compound 158, 8-(2-((2-hydroxyethyl)amino)thiazol-4-yl)-2-((4-(2-phenylpropan-2-yl)phenoxy)methyl)pyrido [3,4-d]pyrimidin-4(3H)-one]"
12,< 20,"O=c1[nH]c(COc2ccc(C3CCCC3)cc2)nc2c(-c3csc(NCCO)n3)nccc12 [Compound 159, 2-((4-cyclopentylphenoxy)methyl)-8-(2-((2-hydroxyethyl)amino)thiazol-4-yl)pyrido[3,4-d]pyrimidin-4(3H)-one]"
13,20 to 50,"O=C(c1ccccc1)c1ccc(OCc2nc3c(-c4csc(NCCO)n4)nccc3c(=O)[nH]2)cc1 [Compound 160, 2-((4-benzoylphenoxy)methyl)-8-(2-((2-hydroxyethyl)amino)thiazol-4-yl)pyrido[3,4-d]pyrimidin-4(3H)-one]"
